Like-named read-outs stand apart in the source and are kept apart here.
Tests used:
Format in all cases: in vivo
[1] = tested on: tobacco budworm (Heliothis virescens); assay: Insecticidal test for tobacco budworm, treated cotton cotyledon leaf disc; conditions: for pest or weed control at 400 ppm: Heliothis virescens, foliar, 120 h, read-out: TBW: activity at 400 ppm against tobacco budworm (% Control rating)
Procedure: (§1) Insecticidal Test for Tobacco Budworm (Heliothis virescens), Beet Armyworm (Spodoptera exigua), and Cabbage Looper (Trichoplusia ni).
(§2) To prepare the test solution, the test compound was formulated at 400 ppm in 7.5 mL of 2 acetone:1 tap water. 250 μL of the test solution was pipetted upon the surface of 8 mL of lepidopteran diet (modified Shorey) contained in each of five one-ounce plastic cups (one cup=1 replication). A second-instar beet armyworm was placed upon the treated diet in each cup once the solvent had air-dried. The solutions remaining after completing applications to the one-ounce cups were then used as leaf-dip solutions for 3.5 cm leaf discs cut from cabbage leaves and cotton cotyledons. Five discs of each type of plant were dipped until thoroughly coated into each rate of each compound (=5 replications of each treatment). After air-drying, the treated leaf discs were placed individually into one-ounce plastic cups. Each dried, treated cotton cotyledon disc was infested with a 2nd instar tobacco budworm larva, and each cabbage leaf disc was infested with a 2nd instar cabbage looper larva. Cups containing the treated substrates and larvae were capped and then held in a growth chamber at 25° C., 50-55% RH, and 14 hr light: 10 hr dark for 5 days.

[2] = tested on: beet armyworm (Spodoptera exigua); assay: Insecticidal test for beet armyworm, treated lepidopteran diet; conditions: for pest or weed control at 400 ppm: Spodoptera exigua, 120 h, read-out: BAW: activity at 400 ppm against beet armyworm (% Control rating)
Procedure: as §1, §2

[3] = tested on: cabbage looper (Trichoplusia ni); assay: Insecticidal test for cabbage looper, treated cabbage leaf disc; conditions: for pest or weed control at 400 ppm: Trichoplusia ni, foliar, 120 h, read-out: CL: activity at 400 ppm against cabbage looper (% Control rating)
Procedure: as §1, §2

[4] = tested on: cotton aphid (Aphis gossypii); assay: Insecticidal test for cotton aphid, spray on infested squash cotyledons; conditions: for pest or weed control at 50 ppm: Aphis gossypii, 72 h, read-out: CA: activity at 50 ppm against cotton aphid (% Control rating)
Procedure: Insecticidal Test for Cotton Aphid (Aphis gossypii)
To prepare spray solutions, 1 mg of each test compound was dissolved into 1 mL of a 90:10 acetone:ethanol solvent. This 1 mL of chemical solution was added to 19 mL of water containing 0.05% Tween 20 surfactant to produce a 50 ppm spray solution.
Squash cotyledons were infested with cotton aphid (all life stages)16-20 hours prior to application of spray solution. The solution was sprayed on both sides of each infested squash cotyledon (0.5 mL×2 each side) with a sweeping action until runoff. The plants were allowed to air dry and held for 3 days in a controlled room at 26° C. and 40% RH after which time the test was graded. Grading was by actual count using a dissecting microscope and comparison of test counts to the untreated check. Results are given in Tables 1-4 as percent control based on population reduction versus the untreated.

[5] = tested on: two-spotted spider mite (Tetranychus urticae); assay: Insecticidal test for two-spotted spider mite, ovicide method on cotton leaf discs; conditions: hatched larvae after 6 days; for pest or weed control: Tetranychus urticae, foliar, 144 h, read-out: SM: activity against two-spotted spider mite (% Control rating)
Procedure: Insecticidal Test for Two-Spotted Spider Mite (Tetranychus urticae) Ovicide Method: Ten adult female two-spotted spider mites were placed on eight 2.2 cm leaf discs of cotton leaf, allowed to oviposit over 24 hours, and thereafter removed. […] Discs were placed on an agar substrate and held at 24° C. and 90% RH for 6 days.

[6] = tested on: sweetpotato whitefly (Bemisia tabacia); assay: Insecticidal test for sweetpotato whitefly, spray on cotton plants; conditions: 312 h, 200 ppm spray, large nymphs counted after 13 days, read-out: WF: activity at 200 ppm against whitefly (% Control rating)
Procedure: Insecticidal Test for Sweetpotato Whitefly (Bemisia tabacia)
Four mg of each test compound was dissolved by adding 4 mL of a 90:10 acetone:ethanol solvent mixture to the vial containing the sample compound. This solution was added to 16 mL of water containing 0.05% Tween 20 surfactant to produce 20 mL of a 200 ppm spray solution.
Five-week-old cotton plants reared in a greenhouse were stripped of all foliage except for the two uppermost true leaves that were greater than 5 cm in diameter.
These plants were then placed into a laboratory colony of whiteflies for two days for oviposition by the colony females. All whiteflies were then removed from the test plants with pressurized air. The spray solution was then applied to the test plants with a hand-held syringe fitted with hollow cone nozzle. One mL of spray solution was applied to each leaf top and bottom for a total of 4 mL per plant. Four replications of each test compound utilized a total of 16 mL spray solution. Plants were air dried and then placed in a holding chamber (28° C. and 60% RH) for 13 days. Compound efficacy was evaluated by counting, under an illuminated magnifying glass, the number of large nymphs (3rd-4th instar) per leaf.
Percent control based on reduction of large nymphs of a test compound compared to solution-only (no test compound) sprayed plants is reported in Tables 1-4.

[7] = 400 ppm, leaf-dip cotton cotyledon disc, 2nd instar larvae, 5 days
[8] = 400 ppm, treated diet surface, second-instar larvae, 5 days
[9] = 400 ppm, leaf-dip cabbage leaf disc, 2nd instar larvae, 5 days
[10] = 50 ppm spray, squash cotyledons, all life stages, 3 days

**Q.** Which results are given for “4-[5-Methyl-4-(4′-trifluoromethoxybiphenyl)-4-yl)-4,5-dihydro-oxazol-2-yl]-3,5-dichloropyridines [Compound 47]”?
**A.** TBW: activity at 400 ppm against tobacco budworm (% Control rating) [1, 7]: A (90-100); BAW: activity at 400 ppm against beet armyworm (% Control rating) [2, 8]: A (90-100); CL: activity at 400 ppm against cabbage looper (% Control rating) [3, 9]: A (90-100); CA: activity at 50 ppm against cotton aphid (% Control rating) [4, 10]: A (90-100); SM: activity at 2.5 ppm against two-spotted spider mite (% Control rating) [5]: A (90-100)

**Q.** What does the source list for `FC(F)(F)c1ccc(-c2ccc(C3COC(c4c(Cl)cncc4Cl)=N3)cc2)cc1` (stereo not drawn) [Compound 5]?
**A.** pest or weed control at 400 ppm [1, 7]: < 50%; pest or weed control at 400 ppm [2, 8]: 90 to 100%; pest or weed control at 400 ppm [3, 9]: 90 to 100%; pest or weed control at 50 ppm [4, 10]: 80 to 89%; pest or weed control [5]: 90 to 100%; pest or weed control at 200 ppm [6]: < 50%

**Q.** For `CCOc1ccc(-c2ccc(C3COC(c4c(Cl)cncc4Cl)=N3)cc2)cc1` (stereo not drawn) [Compound 12, 2-(3,5-dichloro-4-pyridinyl)-4-(4-(4-ethoxyphenyl)phenyl)oxazoline], which pest or weed control at 400 ppm [1, 7] is on record?
**A.** 80 to 89%

**Q.** And the pest or weed control at 400 ppm [2, 8]?
**A.** 90 to 100%

**Q.** And the pest or weed control at 400 ppm [3, 9]?
**A.** 60 to 69%

**Q.** And the pest or weed control at 50 ppm [4, 10]?
**A.** 80 to 89%

**Q.** What about the pest or weed control [5] of the same molecule?
**A.** 90 to 100%

**Q.** And the pest or weed control at 200 ppm [6]?
**A.** 80 to 89%

**Q.** Which pest or weed control at 400 ppm [1] does the source give for `Clc1ccc(-c2ccc(C3COC(c4c(Cl)cncc4Cl)=N3)cc2)cc1` (stereo not drawn) [Compound 16] here?
**A.** 60 to 69%

**Q.** What about the pest or weed control at 400 ppm [2] of the same molecule?
**A.** 90 to 100%

**Q.** And the pest or weed control at 400 ppm [3]?
**A.** 90 to 100%

**Q.** What about the pest or weed control at 50 ppm [4] of the same molecule?
**A.** < 50%

**Q.** What about the pest or weed control [5] of the same molecule?
**A.** 90 to 100%

**Q.** `FC(F)(F)c1ccc(-c2ccc(C3COC(c4c(Cl)cncc4Cl)=N3)cc2)c(Cl)c1` (stereo not drawn) [Compound 17] was tested. Which pest or weed control at 400 ppm [2, 8] did it give?
**A.** 90 to 100%

**Q.** What about the pest or weed control at 400 ppm [3, 9] of the same molecule?
**A.** 90 to 100%

**Q.** What about the pest or weed control at 50 ppm [4, 10] of the same molecule?
**A.** 60 to 69%

**Q.** And the pest or weed control [5]?
**A.** 90 to 100%

**Q.** And the pest or weed control at 200 ppm [6]?
**A.** < 50%

**Q.** Which results are given for `Cc1cccc(-c2ccc(C3COC(c4c(Cl)cncc4Cl)=N3)cc2)c1` (stereo not drawn) [Compound 27]?
**A.** pest or weed control at 400 ppm [1]: < 50%; pest or weed control at 400 ppm [2]: 90 to 100%; pest or weed control at 400 ppm [3]: 90 to 100%; pest or weed control at 50 ppm [4]: 90 to 100%; pest or weed control [5]: 80 to 89%

**Q.** Which pest or weed control at 400 ppm [1, 7] does the source give for `Fc1ccc(-c2ccc(C3COC(c4c(Cl)cncc4Cl)=N3)cc2)cc1C(F)(F)F` (stereo not drawn) [Compound 29] here?
**A.** 80 to 89%

**Q.** What about the pest or weed control at 400 ppm [2, 8] of the same molecule?
**A.** 80 to 89%

**Q.** What about the pest or weed control at 400 ppm [3, 9] of the same molecule?
**A.** 90 to 100%

**Q.** And the pest or weed control at 50 ppm [4, 10]?
**A.** < 50%

**Q.** And the pest or weed control [5]?
**A.** 70 to 79%

**Q.** For `CC(C)c1ccc(-c2ccc(C3COC(c4c(Cl)cncc4Cl)=N3)cc2)cc1` (stereo not drawn) [Compound 30], which pest or weed control at 400 ppm [2, 8] is on record?
**A.** 90 to 100%

**Q.** What about the pest or weed control at 400 ppm [3, 9] of the same molecule?
**A.** 60 to 69%

**Q.** What about the pest or weed control at 50 ppm [4, 10] of the same molecule?
**A.** < 50%

**Q.** And the pest or weed control [5]?
**A.** 70 to 79%

**Q.** What about the pest or weed control at 200 ppm [6] of the same molecule?
**A.** < 50%

**Q.** `Fc1c(-c2ccc(C3COC(c4c(Cl)cncc4Cl)=N3)cc2)cccc1C(F)(F)F` (stereo not drawn) [Compound 31] was tested. Which pest or weed control at 400 ppm [1, 7] did it give?
**A.** 60 to 69%

**Q.** What about the pest or weed control [5] of the same molecule?
**A.** < 50%

**Q.** With `Fc1cc(C(F)(F)F)ccc1-c1ccc(C2COC(c3c(Cl)cncc3Cl)=N2)cc1` (stereo not drawn) [Compound 32] as the molecule, how does the pest or weed control at 400 ppm [1, 7] read?
**A.** 90 to 100%

**Q.** And the pest or weed control at 400 ppm [2, 8]?
**A.** 90 to 100%

**Q.** What about the pest or weed control at 50 ppm [4, 10] of the same molecule?
**A.** 70 to 79%

**Q.** What about the pest or weed control [5] of the same molecule?
**A.** 90 to 100%

**Q.** What about the pest or weed control at 200 ppm [6] of the same molecule?
**A.** 90 to 100%

**Q.** What does the source list for `C[S+]([O-])c1ccc(-c2ccc(C3COC(c4c(Cl)cncc4Cl)=N3)cc2)cc1` (stereo not drawn) [Compound 36]?
**A.** pest or weed control at 400 ppm [1, 7]: 60 to 69%; pest or weed control at 400 ppm [3, 9]: 90 to 100%; pest or weed control at 50 ppm [4, 10]: < 50%; pest or weed control at 200 ppm [6]: < 50%

**Q.** With `Fc1cncc(F)c1C1=NC(c2ccc(-c3ccc(C(F)(F)F)cc3)cc2)CO1` (stereo not drawn) [Compound 39, 2-(3,5-difluoro-4-pyridinyl)-4-(4-(4-trifluoromethylphenyl)phenyl)-oxazoline] as the molecule, how does the pest or weed control at 400 ppm [2, 8] read?
**A.** 80 to 89%

**Q.** And the pest or weed control at 400 ppm [3, 9]?
**A.** 90 to 100%

**Q.** What about the pest or weed control at 50 ppm [4, 10] of the same molecule?
**A.** < 50%

**Q.** What about the pest or weed control [5] of the same molecule?
**A.** 90 to 100%

**Q.** And the pest or weed control at 200 ppm [6]?
**A.** < 50%

**Q.** Which results are given for `Cc1cc(-c2ccc(C(F)(F)F)cc2)ccc1C1COC(c2c(Cl)cncc2Cl)=N1` (stereo not drawn) [Compound 43, 2-(3,5-dichloro-4-pyridinyl)-4-(4-(4-trifluoromethylphenyl)-2-methylphenyl)-oxazoline]?
**A.** pest or weed control at 400 ppm [1, 7]: 90 to 100%; pest or weed control at 400 ppm [2, 8]: 90 to 100%; pest or weed control at 400 ppm [3, 9]: 90 to 100%; pest or weed control at 50 ppm [4, 10]: 80 to 89%; pest or weed control [5]: 80 to 89%; pest or weed control at 200 ppm [6]: < 50%

**Q.** Which pest or weed control at 400 ppm [1, 7] does the source give for `Cc1cc(-c2ccc(OC(F)(F)F)cc2)ccc1C1COC(c2c(Cl)cncc2Cl)=N1` (stereo not drawn) [Compound 44, 2-(3,5-dichloro-4-pyridinyl)-4-(4-(4-trifluoromethoxyphenyl)-2-methylphenyl)-oxazoline] here?
**A.** 90 to 100%

**Q.** What about the pest or weed control at 400 ppm [2, 8] of the same molecule?
**A.** 90 to 100%

**Q.** What about the pest or weed control at 400 ppm [3, 9] of the same molecule?
**A.** 90 to 100%

**Q.** What about the pest or weed control at 50 ppm [4, 10] of the same molecule?
**A.** 80 to 89%

**Q.** And the pest or weed control [5]?
**A.** 90 to 100%

**Q.** And the pest or weed control at 200 ppm [6]?
**A.** 50 to 59%

**Q.** How did the pest or weed control at 400 ppm [1, 7] turn out when `C[C@H]1OC(c2c(Cl)cncc2Cl)=N[C@@H]1c1ccc(-c2ccc(OC(F)(F)F)cc2)cc1` [Compound 48] was run?
**A.** 90 to 100%

**Q.** What about the pest or weed control at 400 ppm [3, 9] of the same molecule?
**A.** 90 to 100%

**Q.** What about the pest or weed control at 50 ppm [4, 10] of the same molecule?
**A.** 80 to 89%

**Q.** And the pest or weed control [5]?
**A.** 50 to 59%

**Q.** And the pest or weed control at 200 ppm [6]?
**A.** < 50%

— US6924298B2, “2-(3,5-Disubstituted-4-pyridyl)-4-(thienyl, thiazolyl or arylphenyl)-1,3-oxazoline compounds” (Dow AgroSciences LLC, priority 2000, dated 2005)
